# Target: T1, acetylcholine muscarinic M1 receptor (Homo sapiens, UniProt P11229)
# T1 construct: expressed in transfected cells; host or cells: CHOnfat cells (CHOnfat/hM1)
# T1 sequence (P11229 1-460): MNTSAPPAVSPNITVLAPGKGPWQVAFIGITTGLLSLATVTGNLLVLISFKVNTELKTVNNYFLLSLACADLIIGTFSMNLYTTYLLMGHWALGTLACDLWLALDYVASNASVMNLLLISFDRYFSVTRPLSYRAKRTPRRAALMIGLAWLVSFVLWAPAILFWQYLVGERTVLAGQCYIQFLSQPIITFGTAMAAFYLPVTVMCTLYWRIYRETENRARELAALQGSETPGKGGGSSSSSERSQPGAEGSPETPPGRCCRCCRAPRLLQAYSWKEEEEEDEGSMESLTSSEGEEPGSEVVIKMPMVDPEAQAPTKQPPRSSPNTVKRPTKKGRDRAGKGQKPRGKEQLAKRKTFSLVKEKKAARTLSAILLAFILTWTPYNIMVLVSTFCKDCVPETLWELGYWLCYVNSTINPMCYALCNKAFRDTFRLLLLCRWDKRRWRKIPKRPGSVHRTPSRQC
# Test: FLIPR intracellular calcium assay for M1 receptor positive allosteric modulator activity
# Type: cell-based
# Conditions: inflection point from FLIPR values; CHOnfat/hM1 cells; 4 min preincubation, then EC20 acetylcholine (3 nM final); read-out: M1 IP Value
# Procedure: The assay studies the effect of one or several concentrations of test compounds on basal or acetylcholine-stimulated Ca^2+ levels using FLIPR.
# Compounds are prepared and subjected to a preincubation period of 4 min. Thereafter, a single EC20 concentration of acetylcholine is added to each well (3 nM final). The intracellular Ca^2+ level of each sample is measured and compared to an acetylcholine control to determine any modulatory activity.
# Cells: CHOnfat/hM1, hM2, hM3 or hM4 cells are plated 24 hr before the assay at a density of 18,000 cells/well (100 μL) in a 384 well plate. CHOnfat/hM1 and CHOnfat/hM3 Growth Medium: 90% DMEM (Hi Glucose); 10% HI FBS; 2 mM L-glutamine; 0.1 mM NEAA; Pen-Strep; and […] Geneticin, are added. For M2Gqi5CHOnfat and M4Gqi5CHOnfat cells, an additional 600 ug/ml hygromycin is added.
# Equipment: 384 well plate, 120 μL addition plate; 96-well Whatman 2 ml Uniplate Incubator, 37° C., 5% CO2; Skatron EMBLA-384 Plate Washer; Multimek Pipetting System; Genesis Freedom 200 System; Mosquito System; Temo Nanolitre Pipetting System; and FLIPR^384 Fluorometric Imaging Plate Reader System are used.
# Buffers. […]
# After 60 min, the cells are washed three times with 100 μL of buffer, leaving 30 μL of buffer in each well. […] A signal test to check background fluorescence and basal fluorescence signal is performed. […]
row,Compound,EC50
1,"Cc1ccnc(C2(C#N)CCN(Cc3cc4c(=O)n(-c5ccccc5F)nc-4n4ccccc34)CC2)c1 [Example 1, 1-{[2-(2-Fluorophenyl)-3-oxo-2,3-dihydropyrazolo[4,3-c]quinolizin-5-yl]methyl}-4-(4-methylpyridin-2-yl)piperidine-4-carbonitrile]",175 nM
2,"Cn1cc(N2CCN(Cc3cc4c(=O)n(-c5ccccc5F)nc-4n4ccccc34)CC2=O)cn1 [Example 2, 2-(2-Fluorophenyl)-5-{[4-(1-methyl-1H-pyrazol-4-yl)-3-oxopiperazin-1-yl]methyl}pyrazolo[4,3-c]quinolizin-3(2H)-one]",322 nM

# — US8507494B2, “Heterocyclic quinolizine derived M1 receptor positive allosteric modulators” (Merck Sharp & Dohme Corp., priority 2010, dated 2013)
